pIC50: −log10 of the molar value.
Columns and labels:
[1] = target: cathepsin B (Homo sapiens, UniProt P07858); assay: inhibition of cathepsin B enzyme activity; assay type: biochemical; settings: read-out: activity to inhibit cathepsin B, IC50
Excerpt: Persons skilled in the art can appropriately select the position to introduce the Raman label as well as the type of Raman label to introduce by considering the structure of the compound. Moreover, persons skilled in the art having general techniques in the field of organic synthesis can appropriately synthesize a Raman-labeled compound as the low-molecular-weight compound according to the present invention. This is explained with a specific example as follows. Persons skilled in the art can synthesize an AOMK derivative (hereinafter, also referred to as RAT8-AOMK) by Raman-labeling acyloxymethyl ketone (AOMK) (an inhibitor of cathepsin B) with alkyne using general techniques in the field of organic synthesis. The RAT8-AOMK binds to cathepsin B, so as to inhibit its enzyme activity. The activity of RAT8-AOMK to inhibit cathepsin B is represented by IC50=0.3 μM. RAT8-AOMK can be synthesized and obtained by reacting N-Boc-AOMK (IC50=0.05 μM) with 4-nitrophenyl-4-ethynylbenzyl carbonate. Acyloxymethyl ketone (AOMK) is known as a cysteine protease inhibitor. The principle thereof is that a cysteine residue of the active center of an enzyme protein is modified by AOMK, and thus activity as protease is diminished (see FIG. 24).

[2] = system: target protein; settings: cited from earlier work

Compound | pIC50 [1] | activity when modified with a fluorophore [2]
C#Cc1ccc(COC(=O)N[C@@H](Cc2ccccc2)C(=O)NCC(=O)COC(=O)c2c(C)cccc2C)cc1 [RAT8-AOMK] | 6.52 | –
16F16 | – | loses its activity

— US10338078B2, “Method and apparatus for analyzing biomolecules using Raman spectroscopy” (Japan Science and Technology Agency, priority 2012, dated 2019)
